How the values were obtained:
Format in all cases: in vivo
[1] = test system: Erysiphe graminis tritici (powdery mildew); assay: Test 1 greenhouse foliar spray screen, powdery mildew on wheat; settings: disease control rating, foliar spray on wheat, 400 ppm (+++ at 100 ppm)
corn rootworm = assay: Mite/insect screen, CRW; settings: percent mortality, read-out: CRW RESULTS %; for mortality at 12 ppm: CRW RATE 12.00 PPM; for mortality at 24 ppm: CRW RATE 24.00 PPM
Summary of the method: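 Read-out: % mortality after standard exposure. Formulation: acetone/alcohol (50:50) with emulsifiers at 23 g and 13 g per liter, water-diluted to final test levels.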

[2] = test system: Twospotted spider mites (Tetranychus urticae Koch); assay: Mite/insect screen, SM; settings: Tetranychus urticae, percent mortality, SAW, read-out: SM RESULTS %; for mortality at 200 ppm: SM & MA RATE 200 PPM; for mortality at 400 ppm: SM & MA RATE 400 PPM
Summary of the method: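 Foliar spray to runoff (10 psi), 1 h drying; aqueous dilutions from acetone/alcohol emulsifier stock. Mortality (%) after standard exposure.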

[3] = test system: Pseudoperonospora cubensis (downy mildew); assay: Test 1 greenhouse foliar spray screen, downy mildew on squash; settings: disease control rating, foliar spray on squash, 400 ppm (+++ at 100 ppm)
[4] = test system: Botrytis cinerea (gray mold); assay: Test 1 greenhouse foliar spray screen, gray mold on grape berries; settings: disease control rating, spray on grape berries, 400 ppm (+++ at 100 ppm)
[5] = test system: Septoria tritici (leaf blotch); assay: Test 1 greenhouse foliar spray screen, leaf blotch on wheat; settings: disease control rating, foliar spray on wheat, 400 ppm (+++ at 100 ppm)
[6] = test system: Cercospora beticola (leaf spot); assay: Test 1 greenhouse foliar spray screen, leaf spot on sugar beet; settings: disease control rating, foliar spray on sugar beet, 400 ppm (+++ at 100 ppm)
[7] = test system: Pyricularia oryzae (rice blast); assay: whole plant or invertebrate; settings: disease control rating, foliar spray on rice, 400 ppm (+++ at 100 ppm)
[8] = test system: Venturia inaequalis (apple scab); assay: Test 1 greenhouse foliar spray screen, apple scab on apple seedling; settings: disease control rating, foliar spray on apple seedling, 400 ppm (+++ at 100 ppm)
[9] = test system: Puccinia recondita tritici (leaf rust); assay: Test 1 greenhouse foliar spray screen, leaf rust on wheat; settings: disease control rating, foliar spray on wheat, 400 ppm (+++ at 100 ppm)
[10] = test system: southern armyworm (Spodopetra eridania Cramer); assay: Mite/insect screen, SAW; settings: Spodoptera eridania, percent mortality, SAW, read-out: SAW RESULTS %; for mortality at 200 ppm: SM & MA RATE 200 PPM; for mortality at 400 ppm: SM & MA RATE 400 PPM
Summary of the method: (§1)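 Read-out: percent mortality after standard exposure periods. Test solutions were water dilutions of compound dissolved in acetone/alcohol (50:50) with emulsifier blends; leaves were sprayed to runoff on both surfaces and air-dried for one hour before exposure.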

[11] = test system: melon aphids (Aphis gossypii Glover); assay: Mite/insect screen, MA; settings: Aphis gossypii, percent mortality, SAW, read-out: MA RESULTS %; for mortality at 200 ppm: SM & MA RATE 200 PPM; for mortality at 400 ppm: SM & MA RATE 400 PPM
Summary of the method: as §1

Row | SMILES | POWD MDEW [1] | mortality at 12 ppm (corn rootworm) [%] | mortality at 24 ppm (corn rootworm) [%] | mortality at 200 ppm [2] [%] | mortality at 400 ppm [2] [%] | DOWN MDEW [3] | GRAY MOLD [4] | LEAF BLOT [5] | LEAF SPOT [6] | RICE BLAST [7] | APPL SCAB [8] | LEAF RUST [9] | mortality at 200 ppm [10] [%] | mortality at 400 ppm [10] [%] | mortality at 200 ppm [11] [%] | mortality at 400 ppm [11] [%]
1 | CC(=O)N(CCc1ccc(C)cc1)c1ccnc2ccc(C)cc12 [Example 122, N-[2-(4-methylphenyl)ethyl]-N-(6-methyl-4-quinolinyl)acetamide] | - (0-19% control at 400 ppm) | 0 | 0 | 0 | 0 | ++ (90-100% control at 400 ppm) | - (0-19% control at 400 ppm) | - (0-19% control at 400 ppm) | - (0-19% control at 400 ppm) | ++ (90-100% control at 400 ppm) | - (0-19% control at 400 ppm) | + (20-89% control at 400 ppm) | 0 | 0 | 0 | 0
2 | Fc1cccc2c(NC3CC3c3ccccc3)ccnc12 (centres unmarked) [Example 123, 8-fluoro-N-(2-phenylcyclopropyl)-4-quinolinamine] | - (0-19% control at 400 ppm) | 0 | – | 0 | – | +++ (90-100% control at 100 ppm) | - (0-19% control at 400 ppm) | - (0-19% control at 400 ppm) | - (0-19% control at 400 ppm) | + (20-89% control at 400 ppm) | - (0-19% control at 400 ppm) | + (20-89% control at 400 ppm) | 0 | – | 0 | –
3 | CC(=O)N(CCc1ccc(Cl)cc1)c1ccnc2cc(Cl)ccc12 [Example 124, N-[2-(4-chlorophenyl)ethyl]-N-(7-chloro-4-quinolinyl)acetamide] | +++ (90-100% control at 100 ppm) | 0 | 0 | 0 | 0 | - (0-19% control at 400 ppm) | - (0-19% control at 400 ppm) | - (0-19% control at 400 ppm) | - (0-19% control at 400 ppm) | + (20-89% control at 400 ppm) | - (0-19% control at 400 ppm) | + (20-89% control at 400 ppm) | 0 | 0 | 0 | 0
4 | CC(=O)N(CCc1cccc(C(F)(F)F)c1)c1ccnc2cc(Cl)ccc12 [Example 126, N-(7-chloro-4-quinolinyl)-N-[2-[3-(trifluoromethyl)phenyl]ethyl]acetamide] | ++ (90-100% control at 400 ppm) | 0 | 0 | 0 | 0 | + (20-89% control at 400 ppm) | - (0-19% control at 400 ppm) | + (20-89% control at 400 ppm) | - (0-19% control at 400 ppm) | +++ (90-100% control at 100 ppm) | - (0-19% control at 400 ppm) | + (20-89% control at 400 ppm) | 0 | 0 | 0 | 0
5 | CC(=O)N(CCc1ccc(C(C)C)cc1)c1ccnc2c(F)cccc12 [Example 129, N-[2-[4-(i-propyl)phenyl]ethyl]-N-(8-fluoro-4-quinolinyl)acetamide] | - (0-19% control at 400 ppm) | 0 | 0 | 0 | 0 | + (20-89% control at 400 ppm) | - (0-19% control at 400 ppm) | - (0-19% control at 400 ppm) | - (0-19% control at 400 ppm) | + (20-89% control at 400 ppm) | + (20-89% control at 400 ppm) | ++ (90-100% control at 400 ppm) | 0 | 0 | 0 | 0
6 | Fc1cccc2c(NCCCc3ccc(Cl)cc3)ccnc12 [Example 135, N-[3-(4-chlorophenyl)propyl]-8-fluoro-4-quinolinamine] | - (0-19% control at 400 ppm) | 0 | 0 | 0 | 0 | +++ (90-100% control at 100 ppm) | - (0-19% control at 400 ppm) | + (20-89% control at 400 ppm) | - (0-19% control at 400 ppm) | - (0-19% control at 400 ppm) | - (0-19% control at 400 ppm) | - (0-19% control at 400 ppm) | 0 | 0 | 0 | 0
7 | Clc1ccc(CCCNc2ccnc3cc(Cl)ccc23)cc1 [Example 136, N-[3-(4-chlorophenyl)propyl]-7-chloro-4-quinolinamine] | + (20-89% control at 400 ppm) | 0 | 0 | 0 | 0 | +++ (90-100% control at 100 ppm) | - (0-19% control at 400 ppm) | - (0-19% control at 400 ppm) | - (0-19% control at 400 ppm) | - (0-19% control at 400 ppm) | - (0-19% control at 400 ppm) | - (0-19% control at 400 ppm) | 0 | 0 | 0 | 0
8 | c1ccc(CCCNc2ccnc3ccccc23)cc1 [Example 139, N-(3-phenylpropyl)-4-quinolinamine] | + (20-89% control at 400 ppm) | 0 | – | 0 | – | ++ (90-100% control at 400 ppm) | - (0-19% control at 400 ppm) | - (0-19% control at 400 ppm) | - (0-19% control at 400 ppm) | + (20-89% control at 400 ppm) | - (0-19% control at 400 ppm) | + (20-89% control at 400 ppm) | 0 | – | 0 | –
9 | Fc1cccc2c(NCCCCc3ccc(Cl)cc3)ccnc12 [Example 140, 8-fluoro-N-[4-(4-chlorophenyl)butyl]-4-quinolinamine] | + (20-89% control at 400 ppm) | 0 | 0 | 0 | 0 | +++ (90-100% control at 100 ppm) | - (0-19% control at 400 ppm) | +++ (90-100% control at 100 ppm) | +++ (90-100% control at 100 ppm) | +++ (90-100% control at 100 ppm) | + (20-89% control at 400 ppm) | +++ (90-100% control at 100 ppm) | 0 | 60 | 0 | 0
10 | Fc1cccc2c(NCCC3=CCCCC3)ccnc12 [Example 143, N-[2-(1-cyclohexenyl)ethyl]-8-fluoro-4-quinolinamine] | ++ (90-100% control at 400 ppm) | 0 | 0 | 0 | 0 | +++ (90-100% control at 100 ppm) | - (0-19% control at 400 ppm) | + (20-89% control at 400 ppm) | + (20-89% control at 400 ppm) | ++ (90-100% control at 400 ppm) | - (0-19% control at 400 ppm) | +++ (90-100% control at 100 ppm) | 0 | 0 | 0 | 0

Source: patent EP0326331B1, “Substituted quinolines and cinnolines” (Dow AgroSciences LLC, priority 1988, dated 1989)
